{
  "source": "ChEMBL document CHEMBL4257228",
  "about": "“Glucagon-like-peptide-2 (glp-2) analogues” (2016)",
  "key": {"Mus musculus [1]": {"tested_on": "Mus musculus", "experiment": "Antidiabetic activity in C57BL/6J mouse assessed as reduction in blood glucose level at 1000 nmol/kg, sc administered as single dose 1 hr prior to glucose challenge measured up to 120 mins post glucose challenge by OGTT", "assay_type": "functional, organism-based"}, "Mus musculus [2]": {"tested_on": "Mus musculus", "experiment": "Antidiabetic activity in diet-induced obese C57BL/6J mouse assessed as decrease in plasma insulin level at 250 to 500 nmol/kg, sc bid for 14 days fasted overnight on day 11 to 12 and measured on day 14", "assay_type": "functional, organism-based"}, "Mus musculus [3]": {"tested_on": "Mus musculus", "experiment": "In vivo agonist activity at GLP2R in diet-induced obese C57BL/6J mouse assessed as increase in large intestinal wet weight at 250 to 500 nmol/kg, sc bid for 14 days", "assay_type": "functional, organism-based"}, "Mus musculus [4]": {"tested_on": "Mus musculus", "experiment": "Antidiabetic activity in diet-induced obese C57BL/6J mouse assessed as decrease in fasting blood glucose level at 250 to 500 nmol/kg, sc bid for 14 days fasted overnight on day 11 to 12 and measured on day 14", "assay_type": "functional, organism-based"}, "Mus musculus [5]": {"tested_on": "Mus musculus", "experiment": "In vivo agonist activity at GLP2R in diet-induced obese C57BL/6J mouse assessed as increase in small intestinal wet weight at 250 to 500 nmol/kg, sc bid for 14 days", "assay_type": "functional, organism-based"}, "Mus musculus [6]": {"tested_on": "Mus musculus", "experiment": "Antidiabetic activity in diet-induced obese C57BL/6J mouse assessed as decrease in insulin resistance by measuring lower HOMA-IR index at 250 to 500 nmol/kg, sc bid for 14 days fasted overnight on day 11 to 12 and measured on day 14", "assay_type": "functional, organism-based"}, "Rattus norvegicus": {"tested_on": "Rattus norvegicus", "experiment": "In vivo agonist activity at GLP2R in Wistar rat assessed as increase in small intestinal wet weight administered sc once daily for 4 days measured on day 5", "assay_type": "functional, organism-based"}, "[7]": {"biological_target": "T1, Glucagon-like peptide 2 receptor (Homo sapiens, UniProt O95838)", "T1 sequence (O95838 whole entry)": "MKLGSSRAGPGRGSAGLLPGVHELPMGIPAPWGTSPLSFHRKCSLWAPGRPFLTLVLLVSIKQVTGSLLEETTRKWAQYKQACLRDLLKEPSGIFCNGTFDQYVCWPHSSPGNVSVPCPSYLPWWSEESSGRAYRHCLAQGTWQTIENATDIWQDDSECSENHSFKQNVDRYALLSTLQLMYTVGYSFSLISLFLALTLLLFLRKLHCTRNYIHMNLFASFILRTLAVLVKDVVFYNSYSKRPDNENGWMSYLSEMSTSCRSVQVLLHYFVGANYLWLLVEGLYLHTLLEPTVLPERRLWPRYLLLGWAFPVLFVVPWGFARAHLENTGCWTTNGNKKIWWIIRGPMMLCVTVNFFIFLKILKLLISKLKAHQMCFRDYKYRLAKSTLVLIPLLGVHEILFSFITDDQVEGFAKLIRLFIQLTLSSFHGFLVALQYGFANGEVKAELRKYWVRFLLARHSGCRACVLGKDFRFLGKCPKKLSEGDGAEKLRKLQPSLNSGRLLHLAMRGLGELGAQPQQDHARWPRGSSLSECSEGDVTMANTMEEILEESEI", "experiment": "Agonist activity at human GLP2 receptor expressed in HEK293 cells assessed as increase in intracellular cAMP accumulation by AlphaScreen assay", "assay_type": "functional, cell-based"}},
  "note": "pEC50: −log10 of the molar value. Active and inactive are the calls of the source. No cut-off for these calls is given here. Non-standard residues stand in square brackets, D forms with d. Residues, ends and D or L forms follow the SMILES beside them. Aib = CC(C)(N)C(=O)O",
  "data": [
    {"compound": "H-HGDGSFSDEMNTILDGQAARDFINWLIQTK-NH2", "values": [
      {"measurement": "Activity", "setting": "Mus musculus [1]", "result": "Active"}
    ]},
    {"compound": "H-HGDGSFSSELATILDGKAARDFINWLIQTKITD-OH", "values": [
      {"measurement": "Activity", "setting": "Mus musculus [2]", "result": "Active"},
      {"measurement": "Activity", "setting": "Mus musculus [3]", "result": "Active"},
      {"measurement": "Activity", "setting": "Mus musculus [4]", "result": "Active"},
      {"measurement": "Activity", "setting": "Mus musculus [5]", "result": "Active"},
      {"measurement": "Activity", "setting": "Mus musculus [6]", "result": "Active"},
      {"measurement": "Activity", "setting": "Rattus norvegicus", "result": "Dose-dependent effect"}
    ]},
    {"compound": "CC[C@H](C)[C@H](NC(=O)[C@H](Cc1ccccc1)NC(=O)[C@H](CC(=O)O)NC(=O)[C@H](CCCNC(=N)N)NC(=O)[C@H](C)NC(=O)[C@H](C)NC(=O)[C@H](CCC(N)=O)NC(=O)[C@H](CC(N)=O)NC(=O)[C@H](CC(=O)O)NC(=O)[C@H](CC(C)C)NC(=O)[C@@H](NC(=O)[C@@H](NC(=O)[C@H](CC(N)=O)NC(=O)[C@H](CCSC)NC(=O)[C@H](CCC(=O)O)NC(=O)[C@H](CC(=O)O)NC(=O)[C@H](CO)NC(=O)[C@H](Cc1ccccc1)NC(=O)[C@H](CO)NC(=O)CNC(=O)[C@H](CC(=O)O)NC(=O)C(C)(C)N)[C@@H](C)O)[C@@H](C)CC)C(=O)N[C@@H](CC(N)=O)C(=O)N[C@@H](Cc1c[nH]c2ccccc12)C(=O)N[C@@H](CC(C)C)C(=O)N[C@H](C(=O)N[C@@H](CCC(N)=O)C(=O)N[C@H](C(=O)N[C@@H](CCCCN)C(=O)N[C@H](C(=O)N[C@H](C(=O)N[C@@H](CC(=O)O)C(=O)O)[C@@H](C)O)[C@@H](C)CC)[C@@H](C)O)[C@@H](C)CC", "note": "(H-[Aib]DGSFSDEMNTILDNQAARDFINWLIQTKITD-OH)", "values": [
      {"measurement": "pEC50", "setting": "[7]", "result": 9.92}
    ]}
  ]
}
